# Values quoted from earlier work as cited in patent US20250025420A1, “TERNARY CO-AMORPHOUS FORMS OF DRUGS, PROTEINS, AND WATER-SOLUBLE POLYMERS” (Zerion Pharma APS, priority 2021, published 2025).
# Conditions: stated in Materials
row,SMILES,pKa
1,C=C(C)[C@@H]1CCC(C)=C[C@H]1c1c(O)cc(CCCCC)cc1O [Cannabidiol],9.7
2,C=CC(=O)N1CCC[C@@H](n2nc(-c3ccc(Oc4ccccc4)cc3)c3c(N)ncnc32)C1 [Ibrutinib],3.74
